Where two headings read alike, the source gives them in different places.
Tests used:
Assay type in all cases: cell-based
[1] = target: T1, GLP-1R (Homo sapiens, UniProt P43220); assay: HitHunter cAMP assay (GLP-1R); conditions: for Emax: read-out: (Emax) GLP-1R
Method in brief: (§1)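 Luminescent readout of cAMP by enzyme-fragment immunocompetition gave agonist concentration-response data. Cells (10,000/well) sat in HBSS buffer containing IBMX 625 μM, HEPES 10 mM and BSA 0.2%, exposed to agonist for 30 min at room temperature.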

[2] = target: T1, GLP-1R; assay: PathHunter β-arrestin assay
Method in brief: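 Overnight-plated cells; 0.2% BSA medium; agonist 22-pt 2× dilution series, duplicate; 90 min, 37 °C/5% CO2; detection reagent 3 h RT, dark; luminescence.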

[3] = target: T2, GIP-R (Homo sapiens, UniProt P48546); assay: HitHunter cAMP assay (GIP-R); conditions: for Emax: read-out: (Emax) GIP-R
T2 sequence (P48546 22-466): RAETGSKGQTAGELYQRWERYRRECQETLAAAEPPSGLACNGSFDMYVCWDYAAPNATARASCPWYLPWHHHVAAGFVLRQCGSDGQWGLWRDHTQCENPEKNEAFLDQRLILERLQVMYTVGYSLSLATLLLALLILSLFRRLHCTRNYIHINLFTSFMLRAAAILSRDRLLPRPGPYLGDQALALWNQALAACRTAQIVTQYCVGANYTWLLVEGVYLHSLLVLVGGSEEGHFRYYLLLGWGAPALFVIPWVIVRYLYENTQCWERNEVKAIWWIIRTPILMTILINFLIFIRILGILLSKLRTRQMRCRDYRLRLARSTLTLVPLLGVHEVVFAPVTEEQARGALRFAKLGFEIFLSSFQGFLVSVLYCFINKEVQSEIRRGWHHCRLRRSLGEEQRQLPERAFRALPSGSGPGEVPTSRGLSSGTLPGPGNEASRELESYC
Method in brief: as §1

T1 sequence (P43220 24-463): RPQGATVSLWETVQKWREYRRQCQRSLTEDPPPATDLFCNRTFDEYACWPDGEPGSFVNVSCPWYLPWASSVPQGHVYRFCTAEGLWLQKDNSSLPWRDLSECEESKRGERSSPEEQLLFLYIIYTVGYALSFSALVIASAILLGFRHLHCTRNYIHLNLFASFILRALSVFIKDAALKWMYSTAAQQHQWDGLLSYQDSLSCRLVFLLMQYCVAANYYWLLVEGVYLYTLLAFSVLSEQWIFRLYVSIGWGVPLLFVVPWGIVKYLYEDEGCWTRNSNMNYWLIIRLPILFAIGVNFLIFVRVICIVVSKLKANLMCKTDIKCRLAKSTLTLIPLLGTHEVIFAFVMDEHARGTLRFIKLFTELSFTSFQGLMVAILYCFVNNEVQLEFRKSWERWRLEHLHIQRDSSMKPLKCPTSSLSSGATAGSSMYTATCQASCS

Structure (SMILES) | EC50 ([1]; EC50 GLP-1R/nM, Table 3, cAMP) | EC50 ([1]; EC50 GLP-1R/nM, Table 3A, cAMP) | Emax ([1]; Table 3, cAMP) | Emax ([1]; Table 3A, cAMP) | EC50 [2] | EC50 ([3]; EC50 GIP-R/nM, Table 3, cAMP) | EC50 ([3]; EC50 GIP-R/nM, Table 3A, cAMP) | Emax ([3]; Table 3, cAMP) | Emax ([3]; Table 3A, cAMP) | EC50 ([1]; Table 3, cAMP, read-out: EC50 GLP-1R/nM) | EC50 ([1]; Table 3A, cAMP, read-out: EC50 GLP-1R/nM) | EC50 ([2]; PathHunter β-arrestin assay, read-out: β-arrestin activity EC50) | EC50 ([3]; Table 3, cAMP, read-out: EC50 GIP-R/nM) | EC50 ([3]; Table 3A, cAMP, read-out: EC50 GIP-R/nM) | EC50 [1] | Emax [1] | EC50 ([1]; read-out: EC50 GLP-1R/nM, Table 3A, cAMP) | Emax [3]
CCCCCCCCCCCCCCCC(=O)N[C@@H](CCC(=O)NCCCC[C@H](NC(=O)[C@H](CO)NC(=O)[C@@H]1CCCN1C(=O)[C@@H]1CCCN1C(=O)[C@@H]1CCCN1C(=O)[C@H](C)NC(=O)CNC(=O)[C@H](CO)NC(=O)[C@H](CO)NC(=O)[C@@H]1CCCN1C(=O)CNC(=O)CNC(=O)[C@H](C)NC(=O)[C@H](CC(C)C)NC(=O)[C@H](CC(C)C)NC(=O)[C@H](Cc1c[nH]c2ccccc12)NC(=O)[C@H](CC(N)=O)NC(=O)[C@@H](NC(=O)[C@H](Cc1ccccc1)NC(=O)[C@H](CCC(=O)O)NC(=O)C(C)(C)NC(=O)[C@H](C)NC(=O)[C@H](C)NC(=O)[C@H](CCC(N)=O)NC(=O)[C@H](CCCCN)NC(=O)[C@H](CC(=O)O)NC(=O)[C@H](CC(C)C)NC(=O)[C@H](Cc1ccc(O)cc1)NC(=O)[C@@H](NC(=O)[C@H](CO)NC(=O)[C@H](Cc1ccc(O)cc1)NC(=O)[C@H](CC(=O)O)NC(=O)[C@H](CO)NC(=O)[C@@H](NC(=O)[C@H](Cc1ccccc1)NC(=O)[C@@H](NC(=O)CNC(=O)[C@H](CCC(=O)O)NC(=O)CSCC(=O)N(C)CCN1CCCCC1=O)[C@@H](C)O)[C@@H](C)O)[C@@H](C)CC)C(C)C)C(N)=O)C(=O)O [Compound 17] | 0.1 to 1 nM | 0.1 to 1 nM | 92% | 92% | > 1000 nM | 1 to 10 nM | 1 to 10 nM | 55% | 55% | – | – | – | – | – | – | – | – | –
CCCCCCCCCCCCCCCC(=O)N[C@@H](CCC(=O)NCCCC[C@H](NC(=O)[C@H](CO)NC(=O)[C@@H]1CCCN1C(=O)[C@@H]1CCCN1C(=O)[C@@H]1CCCN1C(=O)[C@H](C)NC(=O)CNC(=O)[C@H](CO)NC(=O)[C@H](CO)NC(=O)[C@@H]1CCCN1C(=O)CNC(=O)CNC(=O)[C@H](C)NC(=O)[C@H](CC(C)C)NC(=O)[C@H](CC(C)C)NC(=O)[C@H](Cc1c[nH]c2ccccc12)NC(=O)[C@H](CC(N)=O)NC(=O)[C@@H](NC(=O)[C@H](Cc1ccccc1)NC(=O)[C@H](CCC(=O)O)NC(=O)C(C)(C)NC(=O)[C@H](C)NC(=O)[C@H](C)NC(=O)[C@H](CCC(N)=O)NC(=O)[C@H](CCCCN)NC(=O)[C@H](CC(=O)O)NC(=O)[C@H](CC(C)C)NC(=O)[C@H](Cc1ccc(O)cc1)NC(=O)[C@@H](NC(=O)[C@H](CO)NC(=O)[C@H](Cc1ccc(O)cc1)NC(=O)[C@H](CC(=O)O)NC(=O)[C@H](CO)NC(=O)[C@@H](NC(=O)[C@H](Cc1ccccc1)NC(=O)[C@@H](NC(=O)CNC(=O)[C@H](CCC(=O)O)NC(=O)C(C)(C)C(=O)NCCN1CCCCC1=O)[C@@H](C)O)[C@@H](C)O)[C@@H](C)CC)C(C)C)C(N)=O)C(=O)O [Compound 19] | – | – | 93% | 93% | – | – | – | 50% | 50% | < 0.1 nM | < 0.1 nM | < 10 nM | 0.1 to 1 nM | 0.1 to 1 nM | – | – | – | –
CCCCCCCCCCCCCCCC(=O)N[C@@H](CCC(=O)NCCCC[C@H](NC(=O)[C@H](CO)NC(=O)[C@@H]1CCCN1C(=O)[C@@H]1CCCN1C(=O)[C@@H]1CCCN1C(=O)[C@H](C)NC(=O)CNC(=O)[C@H](CO)NC(=O)[C@H](CO)NC(=O)[C@@H]1CCCN1C(=O)CNC(=O)CNC(=O)[C@H](C)NC(=O)[C@H](CC(C)C)NC(=O)[C@H](CC(C)C)NC(=O)[C@H](Cc1c[nH]c2ccccc12)NC(=O)[C@H](CC(N)=O)NC(=O)[C@@H](NC(=O)[C@H](Cc1ccccc1)NC(=O)[C@H](CCC(=O)O)NC(=O)C(C)(C)NC(=O)[C@H](C)NC(=O)[C@H](C)NC(=O)[C@H](CCC(N)=O)NC(=O)[C@H](CCCCN)NC(=O)[C@H](CC(=O)O)NC(=O)[C@H](CC(C)C)NC(=O)[C@H](Cc1ccc(O)cc1)NC(=O)[C@@H](NC(=O)[C@H](CO)NC(=O)[C@H](Cc1ccc(O)cc1)NC(=O)[C@H](CC(=O)O)NC(=O)[C@H](CO)NC(=O)[C@@H](NC(=O)[C@H](Cc1ccccc1)NC(=O)[C@@H](NC(=O)CNC(=O)[C@H](CCC(=O)O)NC(=O)CCCCC(=O)NCCN1CCCCC1=O)[C@@H](C)O)[C@@H](C)O)[C@@H](C)CC)C(C)C)C(N)=O)C(=O)O [Compound 20] | – | – | – | – | > 1000 nM | 1 to 10 nM | 10 to 100 nM | – | – | – | – | – | – | – | 0.1 to 1 nM | 91% | 0.1 to 1 nM | 22%
CCCCCCCCCCCCCCCC(=O)N[C@@H](CCC(=O)NCCCC[C@H](NC(=O)[C@H](CO)NC(=O)[C@@H]1CCCN1C(=O)[C@@H]1CCCN1C(=O)[C@@H]1CCCN1C(=O)[C@H](C)NC(=O)CNC(=O)[C@H](CO)NC(=O)[C@H](CO)NC(=O)[C@@H]1CCCN1C(=O)CNC(=O)CNC(=O)[C@H](C)NC(=O)[C@H](CC(C)C)NC(=O)[C@H](CC(C)C)NC(=O)[C@H](Cc1c[nH]c2ccccc12)NC(=O)[C@H](CC(N)=O)NC(=O)[C@@H](NC(=O)[C@H](Cc1ccccc1)NC(=O)[C@H](CCC(=O)O)NC(=O)C(C)(C)NC(=O)[C@H](C)NC(=O)[C@H](C)NC(=O)[C@H](CCC(N)=O)NC(=O)[C@H](CCCCN)NC(=O)[C@H](CC(=O)O)NC(=O)[C@H](CC(C)C)NC(=O)[C@H](Cc1ccc(O)cc1)NC(=O)[C@@H](NC(=O)[C@H](CO)NC(=O)[C@H](Cc1ccc(O)cc1)NC(=O)[C@H](CC(=O)O)NC(=O)[C@H](CO)NC(=O)[C@@H](NC(=O)[C@H](Cc1ccccc1)NC(=O)[C@@H](NC(=O)CNC(=O)[C@H](CCC(=O)O)NC(=O)CSCC(=O)NCCN1CCC[C@H](O)C1=O)[C@@H](C)O)[C@@H](C)O)[C@@H](C)CC)C(C)C)C(N)=O)C(=O)O [Compound 21] | < 0.1 nM | < 0.1 nM | 95% | 95% | > 1000 nM | 1 to 10 nM | 10 to 100 nM | 20% | 20% | – | – | – | – | – | – | – | – | –
CCCCCCCCCCCCCCCC(=O)N[C@@H](CCC(=O)NCCCC[C@H](NC(=O)[C@H](CO)NC(=O)[C@@H]1CCCN1C(=O)[C@@H]1CCCN1C(=O)[C@@H]1CCCN1C(=O)[C@H](C)NC(=O)CNC(=O)[C@H](CO)NC(=O)[C@H](CO)NC(=O)[C@@H]1CCCN1C(=O)CNC(=O)CNC(=O)[C@H](C)NC(=O)[C@H](CC(C)C)NC(=O)[C@H](CC(C)C)NC(=O)[C@H](Cc1c[nH]c2ccccc12)NC(=O)[C@H](CC(N)=O)NC(=O)[C@@H](NC(=O)[C@H](Cc1ccccc1)NC(=O)[C@H](CCC(=O)O)NC(=O)C(C)(C)NC(=O)[C@H](C)NC(=O)[C@H](C)NC(=O)[C@H](CCC(N)=O)NC(=O)[C@H](CCCCN)NC(=O)[C@H](CC(=O)O)NC(=O)[C@H](CC(C)C)NC(=O)[C@H](Cc1ccc(O)cc1)NC(=O)[C@@H](NC(=O)[C@H](CO)NC(=O)[C@H](Cc1ccc(O)cc1)NC(=O)[C@H](CC(=O)O)NC(=O)[C@H](CO)NC(=O)[C@@H](NC(=O)[C@H](Cc1ccccc1)NC(=O)[C@@H](NC(=O)CNC(=O)[C@H](CCC(=O)O)NC(=O)CSCC(=O)NCCN1C[C@@H](OC)CC1=O)[C@@H](C)O)[C@@H](C)O)[C@@H](C)CC)C(C)C)C(N)=O)C(=O)O [Compound 22] | 0.1 to 1 nM | 0.1 to 1 nM | 90% | 90% | > 1000 nM | 0.1 to 1 nM | 0.1 to 1 nM | 46% | 46% | – | – | – | – | – | – | – | – | –

— patent US20260176320A1, “MODULATORS OF G-PROTEIN COUPLED RECEPTORS” (priority 2018, published 2026)
